# Data: patent US5807745A, “Method of inhibiting PADGEM-mediated or ELAM-1-mediated leukocyte adhesion using an inhibitor comprising a Le^x core component” (New England Medical Center Hospitals, Inc., priority 1995, dated 1998)
# Assays:
# [1] = tested on: ELAM-mediated binding of HL60 cells to CHO-ELAM cells; test: CHO-ELAM adhesion assay with tritiated HL60 cells; assay type: cell-based; conditions: Homo sapiens, HL-60, done once only, read-out: decrease of ELAM-mediated binding; for inhibition at 250 µM: 0.25 mM; for inhibition at 500 µM: 0.5 mM
# Excerpt: (§1) Chinese hamster ovary cells (CHO-DUKX) were transfected with cDNA encoding ELAM or PADGEM to make CHO-ELAM and CHO-PADGEM cells. Each of the following cell types, Chinese hamster ovary cells-DUKX (CHO-DUKX), Chinese hamster ovary cells transfected with cDNA for ELAM (CHO-ELAM) and Chinese hamster ovary cells transfected with cDNA for PADGEM (CHO-PADGEM), were separately plated at a density of 6×10^4 cells per milliliter of medium into Costar 48 well culture plates. On the following day, HL60 cells in culture were sedimented by centrifugation and resuspended in medium (RPMI, 10% fetal calf serum) to a density of 5×10^5 cells/ml. Tritiated thymidine (5 μCi per milliliter) was added to the HL60 cell suspension and the cells were grown overnight. The following day the HL60 cells were washed thrice in serum free RPMI and resuspended in a volume of 5 mls of RPMI. After assuring that the free tritium in the cell suspension is no more than 10% of the cell associated tritium, the cell count of the cell suspension was established and the cell density was adjusted to 1×10^6 cells per milliliter.
# (§2) To perform the assay medium was aspirated from the CHO cells, CHO-ELAM cells and CHO-PADGEM cells. The wells containing these cells were rinsed with 1 ml of serum free RPMI. HL60 cells were preincubated for 10 minutes with the test sugar at the concentrations indicated. Aliquots of these HL60 cells (100,000 to 300,000 cells) were then added to individual wells containing CHO cells of the various types and the two cell populations incubated together for 30 minutes at room temperature. Unbound HL60 cells were removed by aspiration and the wells were washed thrice with serum free RPMI. The adherent CHO cells and any bound HL60 cells were detached from the surface of the wells with 250 μl of phosphate buffered saline containing 1 mM EDTA. An aliquot of the detached cells (200 μl) was analyzed for tritium content in a β-scintillation counter. The level of nonspecific binding of tritiated HL60 cells was taken as the level of binding seen in the wells containing the CHO-DUKX cells (parent cell line of CHO-PADGEM and CHO-ELAM transfectants). This value was subtracted from the level of tritiated HL60 cells bound in wells containing CHO-ELAM or CHO-PADGEM cells. The decrease in binding induced by the presence of the sugar was determined by comparing the level of binding of HL60 cells in the presence of the sugar to that observed in its absence.
# (§3) Additional sugars were tested for inhibition of PADGEM- and ELAM-mediated interactions using the CHO-PADGEM and CHO-ELAM adhesion assay described in Example 2. The following sugars were tested at a single concentration: […]
# [2] = tested on: PADGEM-mediated binding of HL60 cells to CHO-PADGEM transfectants; test: CHO-PADGEM adhesion assay with tritiated HL60 cells; assay type: cell-based; conditions: done once only
# Excerpt: as §1, §2, §3
# [3] = tested on: binding of HL60 cells to COS/PADGEM cells; test: COS cell-PADGEM adhesion assay with labelled HL60 cells; assay type: cell-based, human; conditions: for inhibition of binding of radiolabeled HL60 cells to COS/PADGEM cells: 111In activity, FIG. 7; for inhibition of binding of fluorescently labeled HL60 cells to COS/PADGEM cells: scored morphologically in a blind assay
# Description: COS cells (1×10^5) were transfected with 40 μg of the resulting PADGEM expression vector by calcium phosphate precipitation. Coverslips (12×12 mm) were added to each culture. After 48 hours of growth in DMEM--10% fetal calf serum, the COS cells were confluent.
# HL60 cells (1×10^7), maintained in culture, were washed and resuspended in 0.5 ml of serum-free RPMI 1640. The cells were labeled with 270 μCi of ^111 In oxine (Callow et al., Arch. Surg., 117: 1447-1455 (1982)) and 10 μg of bis-carboxyethyl-carboxyfluorescein (Kolber et al., J. Immunol. Meth., 108: 255-264 (1988)) by incubation at 37° C. for 30 minutes. After washing with RPMI 1640--1% bovine serum albumin, the cells (1×10^6) were incubated with the coverslips containing confluent COS cell transfectants, in the presence or absence of LNF isomers, for 20 minutes at 37° C. The coverslips were washed with RPMI 1640, and duplicate coverslips were assayed for ^111 In activity. Alternatively, samples were evaluated for HL60 cell adherence by fluorescence and phase-contrast microscopy using a Zeiss Axioscope microscope in a blind assay. Inhibition of the binding of COS/PADGEM cells to U937 cells by the antibody 80H5 was performed in experiments identical to the procedure described above.
# The results of a COS cell-PADGEM adhesion assay, in which the binding of ^111 In and bis-carboxyethyl-carboxyfluorescein-lableled HL60 cells to COS/PADGEM cells was monitored by assaying ^111 In activity (Example 2), are shown in FIG. 7. […] The inhibitory effect of LNF II was more apparent when the LNF to PADGEM ratio was high. […] It is possible that minor contamination of the LNF II preparation with LNF III can account for the inhibitory activity observed.
# The inhibitory effects of LNF I, II, and III on the interaction of HL60 cells and COS/PADGEM was also studied morphologically in a blind assay. In these experiments, the binding of fluorescently labeled HL60 cells to COS/PADGEM cells was scored (Example 2).
# [4] = tested on: adherence of activated platelets to neutrophils (PADGEM-mediated); test: Phase-contrast cell adhesion assay: thrombin-activated platelets with neutrophils; assay type: cell-based, human; conditions: LNF isomers; direct cell adhesion assay; FIG. 6
# Description: Platelets were isolated by gel filtration from fresh anticoagulated blood obtained from normal human donors (Hsu-Lin et al., J. Biol. Chem., 259: 9121-9126 (1984)). Activated platelets were prepared by incubating cells without stirring for 20 minutes at 22° C. with thrombin at a final concentration of 0.25 U/ml. Fresh platelets were used in cell adhesion assays within 30 minutes of preparation.
# Neutrophils were prepared by the method of English and Anderson (J. Immunol. Method, 5: 249-252 (1974)). The neutrophil preparations were greater than 95% pure by light microscopy. Monocytes were prepared by washing the mono-nuclear leukocyte fraction twice with human serum-5 mM EDTA and incubating the cells in RPMI 1640--10% fetal calf serum in sterile […] dishes for 2 hours at 37° C. The dishes were washed three times with PBS at 37° C. to remove nonadherent cells. PBS at 0° C. was added, and the cells were incubated at 4° C. for 1 hour. Adherent cells were gently detached with a rubber policeman, washed in PBS, and resuspended in RPMI 1640--1% fetal calf serum. Lymphocytes were obtained by washing the nonadherent cells with PBS and resuspending these cells in RPMI 1640--1% fetal calf serum. The purity of these preparations was established to be greater than 90% by light microscopy using Wright esterase and nonspecific esterase stains.
# Twenty microliters of platelet suspension (2×10^8 /ml) was mixed with 20 μl of cell suspension (2×10^6 /ml) and incubated for 20 minutes at 22° C. in a microfuge tube. An aliquot of the cell suspension was then in a Neubauer chamber and evaluated by light microscropy using an Olympus model BH-2 microscope. Three samples from each assay were evaluated by counting 200 cells and scoring the percentage of cells with two or more adherent platelets (Jungi et al., Blood 67: 629-636 (1986)). Antibody inhibition studies were performed by preincubating cells (20 μl; 3×10^6 /ml) with 20 μl of antibody solution for 20 minutes at 22° C. Subsequently, 20 μl of platelet suspension was added, and the mixture was incubated for 20 minutes at 22° C. Samples were analyzed as above.
# To identify the PADGEM recognition site on leukocytes that mediates the binding of activated platelets, monoclonal antibodies directed at various antigens on the surface of monocytes and neutrophils were tested for their ability to inhibit the interaction of these cells with activated platelets, using the phase-contrast cell adhesion assay described in Example 2 (FIG. 1 and FIG. 2). The antibodies were raised against various leukocytes and myeloid cell lines and are directed at leukocyte antigens. […] The percentage of cells displaying two or more adherent platelets was determined as described in Example 2.
# [5] = tested on: PADGEM; conditions: literature reports; cited from earlier work
compound,measurement,setting,value
"CC(=O)NC1C(O)CC(OC2C(O)C(CO)OC(OC3C(CO)OC(O)C(O)C3OC3OC(C)C(O)C(O)C3O)C2O)(C(=O)O)OC1C(O)C(O)CO (stereo not shown) [3'-sialyl-3-fucosyllactose, NeuAcα2-3Galβ1-4[Fucα1-3]Glc]",inhibition at 250 µM,[1],50 to 60%
same,inhibition of PADGEM-mediated binding of HL60 cells to CHO-PADGEM transfectants,[2]; 0.25 mM,none of the four sugars tested appreciably inhibited
"CC(=O)NC1C(O)CC(OC2C(O)C(CO)OC(OC3C(CO)OC(O)C(O)C3O)C2O)(C(=O)O)OC1C(O)C(O)CO (stereo not shown) [3'-sialyllactose, NeuAcα2-3Galβ1-4Glc]",inhibition at 500 µM,[1],≤ 10%
same,inhibition of PADGEM-mediated binding of HL60 cells to CHO-PADGEM transfectants,[2]; 0.5 mM,none of the four sugars tested appreciably inhibited
"C[C@@H]1O[C@@H](O[C@H]2[C@H](O[C@@H]3O[C@H](CO)[C@H](O)[C@H](O)[C@H]3O)[C@@H](CO)OC(O)[C@@H]2O)[C@@H](O)[C@H](O)[C@@H]1O (stereo partly shown) [3-fucosyllactose, Galβ1-4[Fucα1-3]Glc]",inhibition at 250 µM,[1],≤ 10%
same,inhibition of PADGEM-mediated binding of HL60 cells to CHO-PADGEM transfectants,[2]; 0.25 mM,none of the four sugars tested appreciably inhibited
"CC(=O)NC1C(O)CC(OCC2OC(OC3C(CO)OC(O)C(O)C3O)C(O)C(O)C2O)(C(=O)O)OC1C(O)C(O)CO (stereo not shown) [6'-sialyllactose, NeuAcα2-6Galβ1-4Glc]",inhibition at 500 µM,[1],≤ 10%
same,inhibition of PADGEM-mediated binding of HL60 cells to CHO-PADGEM transfectants,[2]; 0.5 mM,none of the four sugars tested appreciably inhibited
"CC(=O)N[C@H]1[C@H](O[C@H]2[C@@H](O)[C@@H](CO)O[C@@H](O[C@H]3[C@H](O)[C@@H](O)C(O)O[C@@H]3CO)[C@@H]2O)O[C@H](CO)[C@@H](O)[C@@H]1O[C@@H]1O[C@H](CO)[C@H](O)[C@H](O)[C@H]1O[C@@H]1O[C@@H](C)[C@@H](O)[C@@H](O)[C@@H]1O (stereo partly shown) [LNF I, Fucα1-2Galβ1-3GlcNAcβ1-3Galβ1-4Glc]",inhibition of binding of radiolabeled HL60 cells to COS/PADGEM cells,[3],did not inhibit
same,inhibition of binding of fluorescently labeled HL60 cells to COS/PADGEM cells,[3],no inhibitory activity
same,inhibitory activity on adherence of activated platelets to neutrophils,[4],neither LNF I (open squares) nor LNF II (closed circles) had inhibitory activity
"CC(=O)N[C@H]1[C@H](O[C@H]2[C@@H](O)[C@@H](CO)O[C@@H](O[C@H]3[C@H](O)[C@@H](O)C(O)O[C@@H]3CO)[C@@H]2O)O[C@H](CO)[C@@H](O[C@@H]2O[C@@H](C)[C@@H](O)[C@@H](O)[C@@H]2O)[C@@H]1O[C@@H]1O[C@H](CO)[C@H](O)[C@H](O)[C@H]1O (stereo partly shown) [LNF II, Galβ1-3(Fucα1-4)GlcNAcβ1-3Galβ1-4Glc]",inhibition of binding of radiolabeled HL60 cells to COS/PADGEM cells,[3],only a small inhibitory effect
same,inhibition of binding of fluorescently labeled HL60 cells to COS/PADGEM cells,[3],no inhibitory activity
same,inhibitory activity on adherence of activated platelets to neutrophils,[4],neither LNF I (open squares) nor LNF II (closed circles) had inhibitory activity
fucoidin,inhibition of PADGEM-mediated binding of activated platelets to leukocytes,[5],inhibited
heparin,inhibition of PADGEM-mediated binding of activated platelets to leukocytes,[5],inhibited
